Test results: patent publication US20220073525A1, “COMPOSITIONS FOR INHIBITING UBIQUITIN SPECIFIC PROTEASE 1” (FORMA Therapeutics, Inc., priority 2019, published 2022)

Target: USP1 (Homo sapiens, UniProt O94782)
Test: Biochemical Assay for USP1 Inhibition (Ub-Rho 110 fluorescence)
Details: Table 5; 30 min preincubation, Enzyme 0.025 nM, Substrate Ub-Rho 110 25 nM; read-out: IC50 (μm)
Procedure: The assay was performed in a final volume of 6 μL in assay buffer containing 20 mM Tris-HCl pH 8.0, (1 M Tris-HCl, pH 8.0 solution; Corning 46-031-CM), 1 mM GSH (L-glutathione reduced, Sigma-Aldrich, G4251-100G), 0.03% BGG (0.22 μM filtered, Sigma, G7516-25G), and 0.01% Triton X-100 (Sigma, T9284-10L). Nanoliter quantities of 10-point, 3-fold serial dilution in DMSO were pre-dispensed into 1536 assay plates (Corning, #3724BC) for a final test concentration of 25 μM to 1.3 nM, top to lowest dose, respectively. Concentration and incubation times were optimized for the maximal signal-to-background while maintaining initial velocity conditions at a fixed substrate concentration (<<Km). 3 μL of 2× Enzyme was added to assay plates (pre-stamped with compound), preincubated for 30 min, and then treated with 3 μL of 2× Substrate (Ub-Rho 110, UbiQ-126). Final concentrations of Enzyme and Substrate are 0.025 nM and 25 nM, respectively. Plates were read using a kinetic protocol continuously for 11 min on the Envision (Perkin Elmer) or PheraSTAR (BMG), excitation at 485 nm and emission at 535 nm or excitation at 520 nm and emission at 590 nm. For all assay formats, data were reported as percent inhibition compared with control wells based on the following equation: % inh=100*([…]), where FLU=measured Fluorescence, AveLow=average Fluorescence of no enzyme control (n=32), and AveHigh=average Fluorescence of DMSO control (n=32). IC50 values were determined by curve fitting of the standard 4 parameter logistic fitting algorithm included in the Activity Base software package: TDBS XE Designer Model205. Data is fitted using the Levenburg Marquardt algorithm.
In Table 5, absolute stereochemistry has not been determined for some Compounds. Accordingly, assignment ofany Compounds as the “R” or “S” stereoisomer is arbitrary, unless otherwise noted. In some cases, Compounds are labeled with “1st eluting isomer”, “2nd eluting isomer”, etc. based on the purification method used to separate the stereoisomers.

USP1, sequence (O94782 whole entry): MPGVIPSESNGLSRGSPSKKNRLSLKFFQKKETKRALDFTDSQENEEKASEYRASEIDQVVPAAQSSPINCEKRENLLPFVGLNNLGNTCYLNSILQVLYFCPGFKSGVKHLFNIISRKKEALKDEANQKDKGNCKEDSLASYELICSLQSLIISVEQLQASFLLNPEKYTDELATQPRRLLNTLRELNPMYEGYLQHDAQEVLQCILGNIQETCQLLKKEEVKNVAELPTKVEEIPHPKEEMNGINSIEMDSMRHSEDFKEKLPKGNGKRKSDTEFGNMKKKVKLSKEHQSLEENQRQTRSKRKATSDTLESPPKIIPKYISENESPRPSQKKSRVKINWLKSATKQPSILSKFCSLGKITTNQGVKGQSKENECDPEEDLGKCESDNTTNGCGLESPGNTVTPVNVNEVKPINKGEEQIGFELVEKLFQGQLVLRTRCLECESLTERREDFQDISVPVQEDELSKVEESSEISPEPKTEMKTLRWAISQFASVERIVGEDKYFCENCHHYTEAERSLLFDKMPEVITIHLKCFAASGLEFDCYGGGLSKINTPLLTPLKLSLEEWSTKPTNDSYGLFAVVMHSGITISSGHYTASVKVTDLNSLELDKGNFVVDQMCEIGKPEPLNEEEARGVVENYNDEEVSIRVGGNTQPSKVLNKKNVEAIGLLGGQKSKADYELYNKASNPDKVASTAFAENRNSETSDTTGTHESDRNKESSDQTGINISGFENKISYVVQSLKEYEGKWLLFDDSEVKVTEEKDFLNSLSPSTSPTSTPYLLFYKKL
USP1, sequence (Q8TAF3 whole entry partner): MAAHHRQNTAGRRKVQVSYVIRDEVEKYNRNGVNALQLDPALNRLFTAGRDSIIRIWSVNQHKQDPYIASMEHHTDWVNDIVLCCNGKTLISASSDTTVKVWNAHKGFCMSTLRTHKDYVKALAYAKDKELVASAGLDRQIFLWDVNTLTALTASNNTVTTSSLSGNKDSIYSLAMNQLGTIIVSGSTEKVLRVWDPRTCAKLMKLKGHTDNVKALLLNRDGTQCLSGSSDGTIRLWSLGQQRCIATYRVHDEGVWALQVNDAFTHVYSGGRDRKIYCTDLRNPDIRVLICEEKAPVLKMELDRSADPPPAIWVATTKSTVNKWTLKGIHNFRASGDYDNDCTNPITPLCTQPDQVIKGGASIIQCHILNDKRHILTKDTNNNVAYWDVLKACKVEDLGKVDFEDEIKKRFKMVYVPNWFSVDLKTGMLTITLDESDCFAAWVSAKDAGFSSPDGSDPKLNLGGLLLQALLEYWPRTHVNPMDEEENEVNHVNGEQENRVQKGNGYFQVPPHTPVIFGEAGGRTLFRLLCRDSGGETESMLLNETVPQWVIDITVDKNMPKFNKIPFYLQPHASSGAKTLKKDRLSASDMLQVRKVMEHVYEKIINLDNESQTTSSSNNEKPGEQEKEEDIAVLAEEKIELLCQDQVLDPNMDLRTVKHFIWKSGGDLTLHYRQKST

Compound | IC50
CC(C)c1ncccc1-c1nc(C(F)(F)F)n2c1CN(c1ccc(-c3nc(C(F)(F)F)cn3C)cc1)CC2 [Compound 2, 3-(7-{4-[1-methyl-4-(trifluoromethyl)-1H-imidazol-2-yl]phenyl}-3-(trifluoromethyl)-5H,6H,7H,8H-imidazo[1,5-a]pyrazin-1-yl)-2-(propan-2-yl)pyridine] | ≤ 1 µM
Cc1nc(-c2cccnc2C(C)C)c2n1CCN(c1ccc(-c3nnn(C)n3)cc1)C2 [Compound 40, 3-{3-methyl-7-[4-(2-methyl-2H-1,2,3,4-tetrazol-5-yl)phenyl]-5H,6H,7H,8H-imidazo[1,5-a]pyrazin-1-yl}-2-(propan-2-yl)pyridine] | 1 to 10 µM
Cc1nc(-c2cccnc2C(C)C)c2n1CCN(c1ccc(-c3nc(C(F)(F)F)cn3C)cc1)C2C (stereo not drawn) [Compound 85, 3-[3,8-dimethyl-7-{4-[1-methyl-4-(trifluoromethyl)-1H-imidazol-2-yl]phenyl}-5H,6H,7H,8H-imidazo[1,5-a]pyrazin-1-yl]-2-(propan-2-yl)pyridine] | ≤ 1 µM
Cc1nc(-c2cccnc2C(C)C)c2n1CCN(c1ccc(N3CCC(O)C3)cc1)C2 (stereo not drawn) [Compound 36, 1-(4-{3-methyl-1-[2-(propan-2-yl)pyridin-3-yl]-5H,6H,7H,8H-imidazo[1,5-a]pyrazin-7-yl}phenyl)pyrrolidin-3-ol] | 10 to 25 µM
Cc1nc(-c2cccnc2C(C)C)c2n1CCN(c1ccc(-c3cnn(C4COC4)c3)cc1)C2 [Compound 71, 3-(3-methyl-7-{4-[1-(oxetan-3-yl)-1H-pyrazol-4-yl]phenyl}-5H,6H,7H,8H-imidazo[1,5-a]pyrazin-1-yl)-2-(propan-2-yl)pyridine] | > 25 µM
Cc1nc(-c2cccnc2C(C)C)c2n1CCN(c1ccc(-c3cnn(C4CCOCC4)c3)cc1)C2 [Compound 74, 3-(3-methyl-7-{4-[1-(oxan-4-yl)-1H-pyrazol-4-yl]phenyl}-5H,6H,7H,8H-imidazo[1,5-a]pyrazin-1-yl)-2-(propan-2-yl)pyridine] | 10 to 25 µM
Cc1nc(-c2cccnc2C(C)C)c2n1CC(C)N(c1ccc(-c3nc(C(F)(F)F)cn3C)cc1)C2 (single isomer, unassigned) [Compound 8-1, 3-[3,6-dimethyl-7-{4-[1-methyl-4-(trifluoromethyl)-1H-imidazol-2-yl]phenyl}-5H,6H,7H,8H-imidazo[1,5-a]pyrazin-1-yl]-2-(propan-2-yl)pyridine] | ≤ 1 µM
Cc1nc(-c2cccnc2C(C)C)c2n1CCN(c1ccc(-c3nc(C(F)(F)F)cn3C)cc1)C2C (stereo not drawn) [Compound 7, 3-(3,8-dimethyl-7-{4-[1-methyl-4-(trifluoromethyl)-1H-imidazol-2-yl]phenyl}-5H,6H,7H,8H-imidazo[1,5-a]pyrazin-1-yl)-2-(propan-2-yl)pyridine] | ≤ 1 µM
Cc1nc(-c2cccnc2OC(F)F)c2n1CCN(c1ccc(-c3nc(C(F)(F)F)cn3C)cc1)C2C (single isomer, unassigned) [Compound 52-1, 2-(difluoromethoxy)-3-[-3,8-dimethyl-7-{4-[1-methyl-4-(trifluoromethyl)-1H-imidazol-2-yl]phenyl}-5H,6H,7H,8H-imidazo[1,5-a]pyrazin-1-yl]pyridine] | ≤ 1 µM
Cc1nc(-c2cccnc2C(C)C)c2n1CCN(c1ccc(-n3ccnc3)cc1)C2 [Compound 47, 3-{7-[4-(1H-imidazol-1-yl)phenyl]-3-methyl-5H,6H,7H,8H-imidazo[1,5-a]pyrazin-1-yl}-2-(propan-2-yl)pyridine] | > 25 µM
Cc1nc(-c2cccnc2C(C)C)c2n1CCN(c1ccc(-c3nc(C(F)(F)F)cn3C)cn1)C2C (stereo not drawn) [Compound 86, 2-[3,8-dimethyl-1-[2-(propan-2-yl)pyridin-3-yl]-5H,6H,7H,8H-imidazo[1,5-a]pyrazin-7-yl]-5-[1-methyl-4-(trifluoromethyl)-1H-imidazol-2-yl]pyridine] | ≤ 1 µM
Cc1nc(-c2cccnc2C(C)C)c2n1CCN(c1cnc(C#N)nc1)C2 [Compound 83, 5-{3-methyl-1-[2-(propan-2-yl)pyridin-3-yl]-5H,6H,7H,8H-imidazo[1,5-a]pyrazin-7-yl}pyrimidine-2-carbonitrile] | > 25 µM
